Results on 13 compounds are retold here after patent US8580832B2, “Substituted phenoxy aminothiazolones as estrogen related receptor-α modulators” (Janssen Pharmaceutica N.V., priority 2007, dated 2013).

Molecules are shown by their SMILES. pEC50: −log10 of the molar value.

This test has as its target T1, ERR1 (also known as ERR-α or ERR-1) (Homo sapiens, UniProt P11474).
T1 construct: the ^6His-tagged-ERR1 LBD
T1 sequence (P11474 193-421 limits assumed): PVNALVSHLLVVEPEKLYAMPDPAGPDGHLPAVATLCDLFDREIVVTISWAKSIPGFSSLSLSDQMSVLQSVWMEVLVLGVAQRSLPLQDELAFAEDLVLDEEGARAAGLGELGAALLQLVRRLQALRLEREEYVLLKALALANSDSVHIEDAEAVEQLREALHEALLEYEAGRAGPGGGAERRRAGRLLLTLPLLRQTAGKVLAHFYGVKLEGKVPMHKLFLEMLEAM
Briefly: TR-FRET assay: disruption of co-activator peptide binding to ERR1 LBD. The class given is biochemical. Particulars: 6His-tagged ERR1 LBD 6 nM, GST-SRC-2 peptide 6 nM, 25° C., 4-18 hours; average of 3 independent experiments. The procedure, abridged: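 The 6His-ERR1 LBD and a GST-hSRC2 co-activator peptide were detected by α-GST Eu cryptate and α-6His-XL665 TR-FRET. Buffer was 25 mM Tris pH 8, 2.5 mM Hepes, 20 mM KCl, 1 mM DTT, 0.05 mg/mL BSA, equilibrated 4-18 h at 25° C. Dose-response curves were fitted hyperbolically and averaged over 3 independent experiments.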
Compound `COCCNC1=NC(=O)/C(=C/c2ccc(Oc3ccc(C#N)cc3C(F)(F)F)c(OC)c2)S1` [Compound 18, 4-{2-Methoxy-4-[2-(2-methoxy-ethylamino)-4-oxo-4H-thiazol-5-ylidenemethyl]-phenoxy}-3-trifluoromethyl-benzonitrile] showed a pEC50 of 6.95.

As to `N#Cc1ccc(Oc2ccc(/C=C3\SC(NCC(F)F)=NC3=O)cc2F)c(C(F)(F)F)c1` [Example 97, 4-{4-[2-(2,2-Difluoro-ethylamino)-4-oxo-4H-thiazol-5-ylidenemethyl]-2-fluoro-phenoxy}-3-trifluoromethyl-benzonitrile], the negative logarithm of the EC50 (pEC50) was 7.40.

For `COc1cc(/C=C2\SC(NCCNC(C)=O)=NC2=O)ccc1Oc1ccc(C#N)cc1C(F)(F)F` [Example 71, N-(2-{5-[4-(4-Cyano-2-trifluoromethyl-phenoxy)-3-methoxy-benzylidene]-4-oxo-4,5-dihydro-thiazol-2-ylamino}-ethyl)-acetamide], the negative-log EC50 (pEC50) was 7.89.

`COc1cc(/C=C2\SC(N3CCOCC3)=NC2=O)ccc1Oc1ccc(C#N)cc1C(F)(F)F` [Compound 5, 4-[2-Methoxy-4-(2-morpholin-4-yl-4-oxo-4H-thiazol-5-ylidenemethyl)-phenoxy]-3-trifluoromethyl-benzonitrile]: the pEC50 was 7.70.

As for `COc1cc(/C=C2\SC(NCCn3cccn3)=NC2=O)ccc1Oc1ccc(C#N)cc1C(F)(F)F` [Example 30, 4-{2-Methoxy-4-[4-oxo-2-(2-pyrazol-1-yl-ethylamino)-4H-thiazol-5-ylidenemethyl]-phenoxy}-3-trifluoromethyl-benzonitrile], the pEC50 is 7.33.

Compound `COc1cc(/C=C2\SC(NC[C@@H](O)CO)=NC2=O)ccc1Oc1ccc(C#N)cc1C(F)(F)F` [Example 34, 4-{4-[2-(2R,3-Dihydroxy-propylamino)-4-oxo-4H-thiazol-5-ylidenemethyl]-2-methoxy-phenoxy}-3-trifluoromethyl-benzonitrile] had a pEC50 of 7.72.

`COc1cc(/C=C2\SC(NCCC(=O)N3CCOCC3)=NC2=O)ccc1Oc1ccc(C#N)cc1C(F)(F)F` [Example 73, 4-{2-Methoxy-4-[2-(3-morpholin-4-yl-3-oxo-propylamino)-4-oxo-4H-thiazol-5-ylidenemethyl]-phenoxy}-3-trifluoromethyl-benzonitrile] had a pEC50 of 7.89.

For `COc1cc(/C=C2\SC(NCC3CNCCO3)=NC2=O)ccc1Oc1ccc(C#N)cc1C(F)(F)F` (stereo not shown) [Example 80, 4-(2-Methoxy-4-{2-[(morpholin-2-ylmethyl)-amino]-4-oxo-4H-thiazol-5-ylidenemethyl}-phenoxy)-3-trifluoromethyl-benzonitrile], the pEC50 was 7.46.

In turn, `CN(CC(O)CO)C1=NC(=O)/C(=C/c2ccc(Oc3ccc(C#N)cc3C(F)(F)F)c(F)c2)S1` (stereo not shown) [Example 50, 4-(4-{2-[(2,3-Dihydroxy-propyl)-methyl-amino]-4-oxo-4H-thiazol-5-ylidenemethyl}-2-fluoro-phenoxy)-3-trifluoromethyl-benzonitrile] showed a pEC50 of 7.92.

With `COc1cc(/C=C2\SC(NCCO)=NC2=O)ccc1Oc1ccc(C#N)cc1C(F)(F)F` [Example 32, 4-{4-[2-(2-Hydroxy-ethylamino)-4-oxo-4H-thiazol-5-ylidenemethyl]-2-methoxy-phenoxy}-3-trifluoromethyl-benzonitrile], the pEC50 was 7.68.

`COc1cc(/C=C2\SC(NCc3ccsc3)=NC2=O)ccc1Oc1ccc(C#N)cc1C(F)(F)F` [Example 89, 4-(2-Methoxy-4-{4-oxo-2-[(thiophen-3-ylmethyl)-amino]-4H-thiazol-5-ylidenemethyl}-phenoxy)-3-trifluoromethyl-benzonitrile] had a pEC50 of 7.60.

Regarding `COc1cc(/C=C2\SC(NC3CCOCC3)=NC2=O)ccc1Oc1ccc(C#N)cc1C(F)(F)F` [Compound 15, 4-{2-Methoxy-4-[4-oxo-2-(tetrahydro-pyran-4-ylamino)-4H-thiazol-5-ylidenemethyl]-phenoxy}-3-trifluoromethyl-benzonitrile], the pEC50 was 7.74.

`COc1cc(/C=C2\SC(NCCCN3CCNC(=O)C3)=NC2=O)ccc1Oc1ccc(C#N)cc1C(F)(F)F` [Example 101, 4-(2-Methoxy-4-{4-oxo-2-[3-(3-oxo-piperazin-1-yl)-propylamino]-4H-thiazol-5-ylidenemethyl}-phenoxy)-3-trifluoromethyl-benzonitrile] showed a pEC50 of 7.96.
